Source: patent publication US8106055B2, “Substituted amide compounds” (Gruenenthal GmbH, priority 2007, dated 2012)

Assays:
[1] = target: T1, bradykinin 1 receptor (B1R) of the rat (Rattus norvegicus, UniProt P97583); experiment: Functional investigation on the rat bradykinin 1 receptor (B1R), Ca2+ FLIPR assay in CHO K1 rB1R cells; assay type: cell-based; conditions: B1R antagonism rat; test substance 10 μM; Ca2+ FLIPR, CHO K1 rB1R cells
T1 construct: expressed in transfected cells; host or cells: CHO K1 cells
T1 sequence (P97583 1-337): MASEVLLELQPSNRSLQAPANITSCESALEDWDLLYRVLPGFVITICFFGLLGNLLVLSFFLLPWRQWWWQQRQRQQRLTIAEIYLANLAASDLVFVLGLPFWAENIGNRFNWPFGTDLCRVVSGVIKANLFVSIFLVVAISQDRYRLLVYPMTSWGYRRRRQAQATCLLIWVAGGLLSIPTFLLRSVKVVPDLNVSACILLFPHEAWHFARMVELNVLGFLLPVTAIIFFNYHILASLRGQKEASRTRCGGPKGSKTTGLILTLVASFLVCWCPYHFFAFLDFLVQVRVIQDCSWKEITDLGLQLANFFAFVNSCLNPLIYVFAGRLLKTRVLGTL
In short: (§1)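 Fluo-4 Ca2+ readout, peak fluorescence. Stable CHO K1 transfectants; compound pre-incubated 10-20 min, then EC80 agonist—Lys-Des-Arg9-BK for hB1R, Des-Arg9-BK for rB1R. % inhibition vs maximal inhibition; IC50 from multiple concentrations, duplicate/triplicate, ≥2 independent runs.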

[2] = target: T2, human bradykinin 1 receptor (B1R) (Homo sapiens, UniProt P46663); experiment: Functional investigation on the human bradykinin 1 receptor (B1R), Ca2+ FLIPR assay in CHO K1 hB1R cells; assay type: cell-based; conditions: B1R antagonism human; test substance 10 μM; Ca2+ FLIPR, CHO K1 hB1R cells
T2 construct: expressed in transfected cells; host or cells: CHO K1 cells
T2 sequence (P46663 1-353): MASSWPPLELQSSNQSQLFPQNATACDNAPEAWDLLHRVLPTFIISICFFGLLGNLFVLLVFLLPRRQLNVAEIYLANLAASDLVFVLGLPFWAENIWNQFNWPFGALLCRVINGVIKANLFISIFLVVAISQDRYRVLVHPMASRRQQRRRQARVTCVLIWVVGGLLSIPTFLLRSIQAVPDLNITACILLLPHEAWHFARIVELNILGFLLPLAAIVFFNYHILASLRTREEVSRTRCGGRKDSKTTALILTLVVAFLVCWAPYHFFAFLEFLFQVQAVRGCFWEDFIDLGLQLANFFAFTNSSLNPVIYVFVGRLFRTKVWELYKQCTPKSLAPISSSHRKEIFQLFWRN
In short: as §1

Compound | B1R Ant. r [10 μM] % Inhibition [1] [%] | B1R Ant. h [10 μM] % Inhibition [2] [%]
CN(C)C(c1ccc(Cl)cc1)C1CCC(CCNC(=O)COC2CCN(S(=O)(=O)c3ccccc3)CC2)CC1 (stereo not shown) [Example 443] | −1 | 21
COc1cc(C)c(S(=O)(=O)N2CCC(OCC(=O)NCC3CCC(C(c4ccc(F)cc4)N(C)C)CC3)C2)c(C)c1C (stereo not shown) [Example 427] | 8 | 76
COc1cc(C)c(S(=O)(=O)N2CCN(CCOCC(=O)NCC3CCC(C(c4ccc(Cl)cc4)N(C)C)CC3)CC2)c(C)c1C (stereo not shown) [Example 429] | 13 | 75
CN(C)C(c1ccc(F)cc1)C1CCC(CNC(=O)COCC2CCCN(S(=O)(=O)c3ccccc3)C2)CC1 (stereo not shown) [Example 424] | 20 | −12
CN(C)C(c1ccc(F)cc1)C1CCC(NC(=O)COC2CCN(S(=O)(=O)c3ccc(F)cc3)C2)CC1 (stereo not shown) [Example 381] | 12 | −19
Cc1cc(C)c(S(=O)(=O)N(C)CCOCC(=O)NCCC2CCC(C(c3ccc(Cl)cc3)N(C)C)CC2)c(C)c1 (stereo not shown) [Example 416] | 30 | 104
CN(C)C(c1ccc(Cl)cc1)C1CCC(CNC(=O)COCCN(C)S(=O)(=O)c2ccc(OC(F)(F)F)cc2)CC1 (stereo not shown) [Example 411] | 3 | 41
CN(C)C(c1ccc(F)cc1)C1CCC(CCNC(=O)COCCN(C)S(=O)(=O)c2ccc(OC(F)(F)F)cc2)CC1 (stereo not shown) [Example 446] | 33 | 19
COc1ccc(S(=O)(=O)N(C)CCOCC(=O)NC2CCC(C(c3cccc(F)c3)N(C)C)CC2)cc1OC (stereo not shown) [Example 401] | 1 | −19
Cc1ccc(S(=O)(=O)N2CCC(OCC(=O)NCC3CCC(C(c4ccc(F)cc4)N(C)C)CC3)C2)cc1 (stereo not shown) [Example 447] | 3 | 24
CN(C)C(c1ccc(Cl)cc1)C1CCC(CCNC(=O)COC2CCN(S(=O)(=O)c3cccc(C(F)(F)F)c3)C2)CC1 (stereo not shown) [Example 431] | 34 | 25
